Experimental data from US8889878B2, “Haloalky-substituted amides as insecticides and acaricides” (Bayer CropScience AG, priority 2009, dated 2014).

Columns and labels:
[1] = system: green peach aphid (Myzus persicae); assay: Myzus test (MYZUPE spray treatment), Example 17; assay type: in vivo; details: china cabbage leaf discs sprayed, after 6 days
Protocol: Myzus Test (MYZUPE Spray Treatment)
• Solvent: 78 parts by weight of acetone • 1.5 parts by weight of dimethylformamide • Emulsifier: 0.5 part by weight of alkylaryl polyglycol ether
To prepare an appropriate active ingredient formulation, 1 part by weight of active ingredient is mixed with the stated amounts of solvent and emulsifier, and the concentrate is diluted with emulsifier-containing water to the desired concentration. Leaf discs from china cabbage (Brassica pekinensis) infested by all stages of the green peach aphid (Myzus persicae) are sprayed with an active ingredient formulation of the desired concentration.
After 6 days, the efficacy in % is determined. 100% means that all aphids were killed; 0% means that no aphids were killed.

[2] = logP by HPLC on reverse-phase column (EEC Directive 79/831 Annex V.A8); assay type: physicochemical
Protocol: The logP values reported in the above Tables and Preparation Examples were determined according to EEC Directive 79/831 Annex V.A8 by HPLC (High Performance Liquid Chromatography) on a reverse-phase column (C18). Temperature 43° C.

[3] = system: armyworm (Spodoptera frugiperda); assay: Spodoptera frugiperda test (SPODFR spray treatment), Example 15; assay type: in vivo; details: maize leaf discs sprayed, after 7 days
Protocol: Spodoptera frugiperda Test (SPODFR Spray Treatment)
(§1) • Solvent: 78.0 parts by weight of acetone • 1.5 parts by weight of dimethylformamide • Emulsifier: 0.5 part by weight of alkylaryl polyglycol ether
To prepare an appropriate active ingredient formulation, 1 part by weight of active ingredient is mixed with the stated amounts of solvent and emulsifier, and the concentrate is diluted with emulsifier-containing water to the desired concentration. Leaf discs from maize (Zea mays) are sprayed with an active ingredient formulation of the desired concentration and, after drying, populated with caterpillars of the armyworm (Spodoptera frugiperda).
After 7 days, the efficacy in % is determined. 100% means that all caterpillars were killed; 0% means that no caterpillars were killed.

[4] = system: mustard beetle (Phaedon cochleariae); assay: Phaedon test (PHAECO spray treatment), Example 7; assay type: in vivo; details: application rate 20 g/ha, china cabbage leaf discs sprayed, after 7 days
Protocol: Phaedon Test (PHAECO Spray Treatment)
as §1
To prepare an active ingredient formulation, 1 part by weight of active ingredient is mixed with the stated amounts of solvent and emulsifier, and the concentrate is diluted with emulsifier-containing water to the desired concentration. Leaf discs from china cabbage (Brassica pekinensis) are sprayed with an active ingredient formulation of the desired concentration and, after drying, populated with larvae of the mustard beetle (Phaedon cochleariae).
After 7 days, the efficacy in % is determined. 100% means that all beetle larvae were killed; 0% means that no beetle larvae were killed.

[5] = HPLC, C18 reverse phase, 43° C., acidic range pH 2.7, calibration with alkan-2-ones

SMILES | efficacy in % ([1]; application rate 100 g/ha) [%] | logP ([2]; HPLC-MS) | efficacy in % [4] [%] | other results
CC(C)NC(=O)c1ccc(/C=C/C(=O)NC(c2cccc(C(F)(F)F)c2)C(F)(F)F)cc1Br (stereo not drawn) [Ia-174] | 100 | HPLC-MS: logP = 3.48; mass |  | 
O=C(/C=C/c1ccc(C(=O)NC(CF)CF)c(Br)c1)NC(c1cccc(C(F)(F)F)c1)C(F)(F)F (stereo not drawn) [Ia-175] | 100 | HPLC-MS: logP = 3.35; mass |  | efficacy in % ([3]; application rate 100 g/ha): 83%
CC(NC(=O)c1ccc(C=CC(=O)NC(c2cccc(C(F)(F)F)c2)C(F)(F)F)cc1Cl)c1nccs1 (mixture of isomers) [Ia-187] | 80 | HPLC-MS: logP = 3.4; mass |  | 
CC(C)ONC(=O)c1ccc(/C=C/C(=O)NC(c2cccc(C(F)(F)F)c2)C(F)(F)F)cc1Cl (racemic) [Ia-194] | 90 | HPLC-MS: logP = 3.29; mass |  | 
O=C(/C=C/c1ccc(C(=O)Nc2ccccn2)c(Cl)c1)NC(c1cccc(C(F)(F)F)c1)C(F)(F)F (stereo not drawn) [Ia-98] |  | HPLC-MS: logP = 3.47 mass | 100 | 
CC(C#N)NC(=O)c1ccc(/C=C/C(=O)NC(c2cccc(C(F)(F)F)c2)C(F)(F)F)cc1Cl (stereo not drawn) [Ia-160] | 100 | HPLC-MS: logP = 3.23; mass |  | 
O=C(NC(c1cccc(C(F)(F)F)c1)C(F)(F)F)c1cc2cc(C(=O)NCc3ccccn3)c(Cl)cc2[nH]1 (racemic) [Ic-23] |  |  | 100 | logP [2, 5]: HPLC-MS: logP = 2.49; mass
CCNC(=O)c1ccc(/C=C/C(=O)NC(c2cccc(C(F)(F)F)c2)C(F)(F)F)cc1C(F)(F)F (stereo not drawn) [Ia-64] |  | HPLC-MS: logP = 3.18; mass | 100 | efficacy in % ([3]; application rate 500 g/ha): 83%
O=C(/C=C/c1ccc(C(=O)NC2CC2)c(C(F)(F)F)c1)NC(c1ccc(Cl)c(Cl)c1)C(F)(F)F (stereo not drawn) [Ia-37] |  | HPLC-MS: logP = 3.41; mass | 100 | 
Cc1cc(/C=C/C(=O)NC(c2cccc(C(F)(F)F)c2)C(F)(F)F)ccc1C(=O)NC(C)C (stereo not drawn) [Ia-102] |  | HPLC-MS: logP = 3.27 mass | 100 | 
COC(=O)N(C)NC(=O)c1ccc(/C=C/C(=O)NC(c2cccc(C(F)(F)F)c2)C(F)(F)F)cc1Br (stereo not drawn) [Ia-103] |  | HPLC-MS: logP = 2.89 mass | 100 | 
Cc1cc(/C=C/C(=O)NC(c2cccc(C(F)(F)F)c2)C(F)(F)F)ccc1C(=O)Nc1ccncc1 (stereo not drawn) [Ia-88] |  | HPLC-MS: logP = 1.87 mass | 100 | 
CN(C(=O)c1ccc(/C=C/C(=O)NC(c2cccc(C(F)(F)F)c2)C(F)(F)F)cc1Br)c1ccccn1 (stereo not drawn) [Ia-89] |  | HPLC-MS: logP = 3.47 mass | 100 | 
O=C(NC(c1cc(Cl)cc(C(F)(F)F)c1)C(F)(F)F)c1cc2cc(Cl)c(C(=O)NC3CC3)cc2[nH]1 (stereo not drawn) [Ic-20] |  |  | 100 | logP [2, 5]: HPLC-MS: logP = 3.47; mass
O=C(/C=C/c1ccc(C(=O)NCC2CC2)c(Br)c1)NC(c1cccc(C(F)(F)F)c1)C(F)(F)F (stereo not drawn) [Ia-180] | 90 | HPLC-MS: logP = 3.55; mass |  | 
O=C(/C=C/c1ccc(C(=O)NC2CCOCC2)c(Cl)c1)NC(c1cccc(C(F)(F)F)c1)C(F)(F)F (stereo not drawn) [Ia-97] |  | HPLC-MS: logP = 2.99 mass | 100 | 
O=C(/C=C/c1ccc(C(=O)NC2CC2c2ccccc2)c(C(F)(F)F)c1)NC(c1cccc(C(F)(F)F)c1)C(F)(F)F (stereo not drawn) [Ia-71] |  | HPLC-MS: logP = 4.22; mass | 100 | 
O=C(NC(c1cc(Cl)cc(Cl)c1)C(F)(F)F)c1cc2ccc(C(=O)NC3CC3)c(Cl)c2[nH]1 (racemic) [Ic-22] |  |  | 100 | logP [2, 5]: HPLC-MS: logP = 3.42; mass
O=C(NCc1ccc2oc(C(=O)NC(c3cccc(C(F)(F)F)c3)C(F)(F)F)cc2c1)c1ccccn1 (stereo not drawn) [Ic-12] |  |  |  | efficacy in % ([1]; application rate 500 g/ha): 80%; logP [2, 5]: HPLC-MS: logP = 3.62; mass

SMILES | efficacy in % ([1]; application rate 100 g/ha) [%] | logP ([2]; HPLC-MS) | efficacy in % [4] [%] | other results
CC(F)(F)CNC(=O)c1ccc(/C=C/C(=O)NC(c2cccc(C(F)(F)F)c2)C(F)(F)F)cc1Cl (stereo not drawn) [Ia-111] |  | HPLC-MS: logP = 3.37 mass | 100 | 
O=C(NC(c1ccc(Cl)c(Cl)c1)C(F)(F)F)c1cc2cc(Cl)c(C(=O)NC3CC3)cc2[nH]1 (stereo not drawn) [Ic-21] |  |  | 100 | logP [2, 5]: HPLC-MS: logP = 3.28; mass
Cc1cc(/C=C/C(=O)NC(c2cccc(C(F)(F)F)c2)C(F)(F)F)ccc1C(=O)NC1CCOCC1 (stereo not drawn) [Ia-86] |  | HPLC-MS: logP = 2.89 mass | 100 | 
C/C(=C\C(=O)NC(c1cccc(C(F)(F)F)c1)C(F)(F)F)c1ccc(C(=O)NC(C)C)c(C(F)(F)F)c1 (stereo not drawn) [Id-4] | 90 |  |  | logP [2, 5]: HPLC-MS: logP = 3.75; mass
O=C(/C=C/c1ccc(C(=O)Nc2ccncc2)c(Br)c1)NC(c1cccc(C(F)(F)F)c1)C(F)(F)F (stereo not drawn) [Ia-91] |  | HPLC-MS: logP = 1.96 mass | 100 | 
O=C(/C=C/c1ccc(C(=O)NCC(F)F)c(Br)c1)NC(c1cccc(C(F)(F)F)c1)C(F)(F)F (stereo not drawn) [Ia-104] |  | HPLC-MS: logP = 3.23 mass | 100 | 
COC(=O)NNC(=O)c1ccc(/C=C/C(=O)NC(c2cccc(C(F)(F)F)c2)C(F)(F)F)cc1Cl (stereo not drawn) [Ia-109] |  | HPLC-MS: logP = 2.72 mass | 100 | 
O=C(/C=C/c1ccc(C(=O)NC2CCCNC2=O)c(Cl)c1)NC(c1cccc(C(F)(F)F)c1)C(F)(F)F (stereo not drawn) [Ia-106] |  | HPLC-MS: logP = 2.61 mass | 100 | 
CC(=O)N(Cc1ccc(/C=C/C(=O)NC(c2cccc(C(F)(F)F)c2)C(F)(F)F)cc1)Cc1ccccn1 (stereo not drawn) [Ia-254] | 80 | HPLC-MS: logP = 2.65; mass |  | 
O=C(/C=C/c1ccc(C(=O)Nc2ccncc2)c(C(F)(F)F)c1)NC(c1cccc(C(F)(F)F)c1)C(F)(F)F (stereo not drawn) [Ia-84] |  | HPLC-MS: logP = 1.99 mass | 100 | 
CCn1c(C(=O)NC(c2cccc(C(F)(F)F)c2)C(F)(F)F)cc2cc(C(=O)NC3CC3)c(Cl)cc21 (racemic) [Ic-26] | 100 |  |  | efficacy in % ([3]; application rate 100 g/ha): 100%
C#CCNC(=O)c1ccc(/C=C/C(=O)NC(c2cccc(C(F)(F)F)c2)C(F)(F)F)cc1Br (stereo not drawn) [Ia-105] |  | HPLC-MS: logP = 3.09 mass | 100 | 
O=C(/C=C/c1ccc(C(=O)Nc2ccncn2)c(Cl)c1)NC(c1cccc(C(F)(F)F)c1)C(F)(F)F (stereo not drawn) [Ia-184] | 100 | HPLC-MS: logP = 3.22; mass |  | 
Cc1cc(/C=C/C(=O)NC(c2cccc(C(F)(F)F)c2)C(F)(F)F)ccc1C(=O)NCc1ccc(F)cn1 (stereo not drawn) [Ia-87] |  | HPLC-MS: logP = 3.13 mass | 100 | 
Cc1cc(/C=C/C(=O)NC(c2cccc(C(F)(F)F)c2)C(F)(F)F)ccc1C(=O)NC1CCC1 (stereo not drawn) [Ia-101] |  | HPLC-MS: logP = 3.53 mass | 100 | 
O=C(/C=C/c1ccc(C(=O)Nc2ncccn2)c(Cl)c1)NC(c1cccc(C(F)(F)F)c1)C(F)(F)F (racemic) [Ia-197] | 90 | HPLC-MS: logP = 2.95; mass |  | 
O=C(/C=C/c1ccc(C(=O)NCc2ccco2)c(C(F)(F)F)c1)NC(c1cccc(C(F)(F)F)c1)C(F)(F)F (stereo not drawn) [Ia-169] | 100 | HPLC-MS: logP = 3.63; mass |  | 
Cc1cc(/C=C/C(=O)NC(c2cccc(C(F)(F)F)c2)C(F)(F)F)ccc1C(=O)NC1COC1 (stereo not drawn) [Ia-83] |  | HPLC-MS: logP = 2.69 mass | 100 | 
O=C(/C=C/c1ccc(C(=O)NCC(=O)NCC(F)(F)F)c(Cl)c1)NC(c1cccc(C(F)(F)F)c1)C(F)(F)F (stereo not drawn) [Ia-107] |  | HPLC-MS: logP = 2.99 mass | 100 | 
